Source: ChEMBL document CHEMBL2390956, “Design, synthesis and evaluation of flavonoid derivatives as potential multifunctional acetylcholinesterase inhibitors against Alzheimer's disease” (Bioorg Med Chem Lett, 2013)
Activity calls are given as the source filed them. The rule behind the calls is not given here.

System: not listed separately
Assay: Metal chelating activity of the compound assessed as formation of copper complex at 35 uM by UV-vis spectrometry
Assay type: functional

SMILES	Activity
CCN(CC)CCCCOc1ccc2c(=O)cc(-c3ccccc3)oc2c1C	Active

Molecular target: Acetylcholinesterase (Homo sapiens) (UniProt P22303)
Sequence (P22303 whole entry): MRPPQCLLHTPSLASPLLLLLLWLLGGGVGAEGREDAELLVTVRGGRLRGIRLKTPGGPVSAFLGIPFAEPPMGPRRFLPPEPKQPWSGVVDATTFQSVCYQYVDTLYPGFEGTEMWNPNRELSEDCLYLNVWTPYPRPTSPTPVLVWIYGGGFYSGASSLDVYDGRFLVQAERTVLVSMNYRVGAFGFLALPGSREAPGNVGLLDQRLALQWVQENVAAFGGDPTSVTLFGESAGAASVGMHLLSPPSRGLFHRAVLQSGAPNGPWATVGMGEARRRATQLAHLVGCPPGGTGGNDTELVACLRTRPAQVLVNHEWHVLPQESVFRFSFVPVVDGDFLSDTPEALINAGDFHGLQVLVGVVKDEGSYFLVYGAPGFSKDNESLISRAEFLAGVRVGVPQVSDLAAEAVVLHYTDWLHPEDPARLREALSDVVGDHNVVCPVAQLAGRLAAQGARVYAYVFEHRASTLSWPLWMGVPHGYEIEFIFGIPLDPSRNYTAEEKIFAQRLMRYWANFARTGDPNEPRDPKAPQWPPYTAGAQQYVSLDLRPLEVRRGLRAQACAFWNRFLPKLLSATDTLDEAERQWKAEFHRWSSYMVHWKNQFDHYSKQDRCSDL
Assay: Mixed inhibition of AChE (unknown origin) using ATC as substrate assessed as acetylcholine hydrolysis incubated 15 mins prior to substrate addition by Lineweaver-Burk plot analysis

SMILES	inhibition
CCN(CC)CCCCOc1ccc2c(=O)cc(-c3ccccc3)oc2c1C	Active

Molecular target: Cholinesterase (Equus caballus, UniProt P81908)
Sequence (P81908 whole entry): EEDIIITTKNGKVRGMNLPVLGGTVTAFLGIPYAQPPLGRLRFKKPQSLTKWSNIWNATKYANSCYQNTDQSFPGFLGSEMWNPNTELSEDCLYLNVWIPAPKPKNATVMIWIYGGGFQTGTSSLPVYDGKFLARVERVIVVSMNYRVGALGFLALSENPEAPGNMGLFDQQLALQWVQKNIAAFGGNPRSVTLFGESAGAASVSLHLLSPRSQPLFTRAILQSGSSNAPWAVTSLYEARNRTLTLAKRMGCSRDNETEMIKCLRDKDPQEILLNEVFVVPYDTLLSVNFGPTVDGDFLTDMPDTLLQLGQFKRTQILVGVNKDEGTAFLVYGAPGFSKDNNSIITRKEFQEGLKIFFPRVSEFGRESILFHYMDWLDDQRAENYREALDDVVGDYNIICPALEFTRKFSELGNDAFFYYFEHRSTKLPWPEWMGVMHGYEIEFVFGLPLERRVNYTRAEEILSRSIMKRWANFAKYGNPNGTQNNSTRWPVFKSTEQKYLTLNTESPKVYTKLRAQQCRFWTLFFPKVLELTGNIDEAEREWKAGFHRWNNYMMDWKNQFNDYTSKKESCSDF
Description: Inhibition of equine serum BuChE using S-butyrylthiocholine iodide as substrate incubated for 6 mins prior to substrate addition measured after 60 to 180 secs by Ellman's method

SMILES	IC50 [nM]
Cc1c(OCCN2CCCCC2C)ccc2c(=O)cc(-c3ccccc3)oc12 (stereo unspecified)	> 100000
CCN(CC)CCCCCOc1ccc2c(=O)cc(-c3ccccc3)oc2c1C	> 100000
Cc1c(OCCCCCCN2CCCC2)ccc2c(=O)cc(-c3ccccc3)oc12	3280
Cc1c(OCCCCCN2CCCCC2C)ccc2c(=O)cc(-c3ccccc3)oc12 (stereo unspecified)	2770
COC(=O)[C@@H]1CCCN1CCCCCOc1ccc2c(=O)cc(-c3ccccc3)oc2c1C	3930
Cc1c(OCCN2CCCC2)ccc2c(=O)cc(-c3ccccc3)oc12	2710
Cc1c(OCCCCN2CCN(C)CC2)ccc2c(=O)cc(-c3ccccc3)oc12	5750
Cc1c(OCCN2CCC(O)CC2)ccc2c(=O)cc(-c3ccccc3)oc12	3210
Cc1c(OCCCCCN(C)C)ccc2c(=O)cc(-c3ccccc3)oc12	2540
Cc1c(OCCCN2CCC(O)CC2)ccc2c(=O)cc(-c3ccccc3)oc12	4120
Cc1c(OCCCN2CCCCC2C)ccc2c(=O)cc(-c3ccccc3)oc12 (stereo unspecified)	5840
Cc1c(OCCCCCN2CCN(C)CC2)ccc2c(=O)cc(-c3ccccc3)oc12	4870
Cc1c(O)ccc2c(=O)cc(-c3ccccc3)oc12	> 100000
Cc1c(OCCCCN(C)C)ccc2c(=O)cc(-c3ccccc3)oc12	> 100000
Cc1c(OCCCCN2CCOCC2)ccc2c(=O)cc(-c3ccccc3)oc12	> 100000
Cc1c(OCCCCCN2CCOCC2)ccc2c(=O)cc(-c3ccccc3)oc12	> 100000
Cc1c(OCCCCN2CCCCC2C)ccc2c(=O)cc(-c3ccccc3)oc12 (stereo unspecified)	> 100000
Cc1c(OCCCCCN2CCC(O)CC2)ccc2c(=O)cc(-c3ccccc3)oc12	4850
Cc1c(OCCCCN2CCC(O)CC2)ccc2c(=O)cc(-c3ccccc3)oc12	> 100000
Cc1c(OCCCCCN2CCCCC2)ccc2c(=O)cc(-c3ccccc3)oc12	1410
Cc1c(OCCCCCCN2CCC(O)CC2)ccc2c(=O)cc(-c3ccccc3)oc12	3930
Cc1c(OCCCCCCN2CCCCC2C)ccc2c(=O)cc(-c3ccccc3)oc12 (stereo unspecified)	3740
Cc1c(OCCCCCN2CCCC2)ccc2c(=O)cc(-c3ccccc3)oc12	1910
CCN(CC)CCCCOc1ccc2c(=O)cc(-c3ccccc3)oc2c1C	4820
COC(=O)[C@@H]1CCCN1CCCCOc1ccc2c(=O)cc(-c3ccccc3)oc2c1C	3820
Cc1c(OCCCN2CCCC2)ccc2c(=O)cc(-c3ccccc3)oc12	2780
Cc1c(OCCCCN2CCCCC2)ccc2c(=O)cc(-c3ccccc3)oc12	> 100000
Cc1c(OCCCCN2CCCC2)ccc2c(=O)cc(-c3ccccc3)oc12	5700

Molecular target: Acetylcholinesterase (Electrophorus electricus, UniProt O42275)
Sequence (O42275 whole entry): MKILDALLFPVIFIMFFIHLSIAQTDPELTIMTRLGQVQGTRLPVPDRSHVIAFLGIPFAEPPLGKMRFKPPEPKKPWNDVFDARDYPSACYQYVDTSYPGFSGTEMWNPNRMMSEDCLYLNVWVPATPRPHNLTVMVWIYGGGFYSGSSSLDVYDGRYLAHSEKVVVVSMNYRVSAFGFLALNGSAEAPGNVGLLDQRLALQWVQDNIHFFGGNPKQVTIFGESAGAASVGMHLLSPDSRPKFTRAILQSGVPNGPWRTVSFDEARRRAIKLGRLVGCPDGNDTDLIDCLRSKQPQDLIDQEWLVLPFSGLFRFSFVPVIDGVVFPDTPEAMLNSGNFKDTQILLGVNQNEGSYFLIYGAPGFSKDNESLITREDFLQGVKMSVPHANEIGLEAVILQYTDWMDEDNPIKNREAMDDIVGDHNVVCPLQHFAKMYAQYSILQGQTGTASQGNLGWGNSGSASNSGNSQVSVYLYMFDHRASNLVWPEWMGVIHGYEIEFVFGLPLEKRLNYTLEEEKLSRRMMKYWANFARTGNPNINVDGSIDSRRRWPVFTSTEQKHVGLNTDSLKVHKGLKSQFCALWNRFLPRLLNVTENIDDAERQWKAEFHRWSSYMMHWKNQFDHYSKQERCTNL
Description: Inhibition of electric eel AChE using acetylthiocholine iodide as substrate incubated for 6 mins prior to substrate addition measured after 60 to 180 secs by Ellman's method

SMILES	IC50 [nM]
Cc1c(OCCN2CCCCC2C)ccc2c(=O)cc(-c3ccccc3)oc12 (stereo unspecified)	2100
CCN(CC)CCCCCOc1ccc2c(=O)cc(-c3ccccc3)oc2c1C	264
Cc1c(OCCCCCCN2CCCC2)ccc2c(=O)cc(-c3ccccc3)oc12	764
Cc1c(OCCCCCN2CCCCC2C)ccc2c(=O)cc(-c3ccccc3)oc12 (stereo unspecified)	216
COC(=O)[C@@H]1CCCN1CCCCCOc1ccc2c(=O)cc(-c3ccccc3)oc2c1C	19600
Cc1c(OCCN2CCCC2)ccc2c(=O)cc(-c3ccccc3)oc12	2040
Cc1c(OCCCCN2CCN(C)CC2)ccc2c(=O)cc(-c3ccccc3)oc12	1660
Cc1c(OCCN2CCC(O)CC2)ccc2c(=O)cc(-c3ccccc3)oc12	1830
Cc1c(OCCCCCN(C)C)ccc2c(=O)cc(-c3ccccc3)oc12	210
Cc1c(OCCCN2CCC(O)CC2)ccc2c(=O)cc(-c3ccccc3)oc12	2940
Cc1c(OCCCN2CCCCC2C)ccc2c(=O)cc(-c3ccccc3)oc12 (stereo unspecified)	590
Cc1c(OCCCCCN2CCN(C)CC2)ccc2c(=O)cc(-c3ccccc3)oc12	1870
Cc1c(O)ccc2c(=O)cc(-c3ccccc3)oc12	87100
Cc1c(OCCCCN(C)C)ccc2c(=O)cc(-c3ccccc3)oc12	328
Cc1c(OCCCCN2CCOCC2)ccc2c(=O)cc(-c3ccccc3)oc12	2880
Cc1c(OCCCCCN2CCOCC2)ccc2c(=O)cc(-c3ccccc3)oc12	8630
Cc1c(OCCCCN2CCCCC2C)ccc2c(=O)cc(-c3ccccc3)oc12 (stereo unspecified)	225
Cc1c(OCCCCCN2CCC(O)CC2)ccc2c(=O)cc(-c3ccccc3)oc12	604
Cc1c(OCCCCN2CCC(O)CC2)ccc2c(=O)cc(-c3ccccc3)oc12	607
Cc1c(OCCCCCN2CCCCC2)ccc2c(=O)cc(-c3ccccc3)oc12	329
Cc1c(OCCCCCCN2CCC(O)CC2)ccc2c(=O)cc(-c3ccccc3)oc12	3150
Cc1c(OCCCCCCN2CCCCC2C)ccc2c(=O)cc(-c3ccccc3)oc12 (stereo unspecified)	1890
Cc1c(OCCCCCN2CCCC2)ccc2c(=O)cc(-c3ccccc3)oc12	243
CCN(CC)CCCCOc1ccc2c(=O)cc(-c3ccccc3)oc2c1C	130
COC(=O)[C@@H]1CCCN1CCCCOc1ccc2c(=O)cc(-c3ccccc3)oc2c1C	25300
Cc1c(OCCCN2CCCC2)ccc2c(=O)cc(-c3ccccc3)oc12	952
Cc1c(OCCCCN2CCCCC2)ccc2c(=O)cc(-c3ccccc3)oc12	234
Cc1c(OCCCCN2CCCC2)ccc2c(=O)cc(-c3ccccc3)oc12	238

System: not listed separately
Assay: Metal chelating activity of the compound assessed as formation of iron complex at 35 uM by UV-vis spectrometry
Assay type: functional

SMILES	Activity
CCN(CC)CCCCOc1ccc2c(=O)cc(-c3ccccc3)oc2c1C	Active

Molecular target: Amyloid-beta precursor protein (Homo sapiens) (UniProt P05067)
Sequence (P05067 whole entry): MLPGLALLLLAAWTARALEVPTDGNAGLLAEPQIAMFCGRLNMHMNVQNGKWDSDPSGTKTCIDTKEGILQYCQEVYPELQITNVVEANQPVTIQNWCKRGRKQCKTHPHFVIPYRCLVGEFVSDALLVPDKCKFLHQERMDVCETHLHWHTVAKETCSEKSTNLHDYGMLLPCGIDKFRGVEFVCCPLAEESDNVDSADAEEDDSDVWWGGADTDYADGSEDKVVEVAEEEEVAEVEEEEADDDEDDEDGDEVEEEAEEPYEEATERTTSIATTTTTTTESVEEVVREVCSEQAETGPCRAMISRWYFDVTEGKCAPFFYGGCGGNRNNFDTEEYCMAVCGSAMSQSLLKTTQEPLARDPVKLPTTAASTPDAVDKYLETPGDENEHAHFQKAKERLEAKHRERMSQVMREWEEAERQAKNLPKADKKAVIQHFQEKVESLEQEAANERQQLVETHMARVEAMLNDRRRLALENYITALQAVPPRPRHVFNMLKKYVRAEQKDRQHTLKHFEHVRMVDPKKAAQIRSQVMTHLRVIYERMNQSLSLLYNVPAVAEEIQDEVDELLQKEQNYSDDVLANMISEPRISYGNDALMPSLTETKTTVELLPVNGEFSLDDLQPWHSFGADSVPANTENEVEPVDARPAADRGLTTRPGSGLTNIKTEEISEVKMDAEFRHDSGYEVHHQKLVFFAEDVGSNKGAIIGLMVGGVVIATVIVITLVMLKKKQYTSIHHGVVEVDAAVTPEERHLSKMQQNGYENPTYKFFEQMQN
Assay: Inhibition of amyloid beta (1 to 42) (unknown origin) aggregation at 20 uM by thioflavin T based fluorometric assay

SMILES	inhibition [%]
Cc1c(OCCN2CCCCC2C)ccc2c(=O)cc(-c3ccccc3)oc12 (stereo unspecified)	30.5
CCN(CC)CCCCCOc1ccc2c(=O)cc(-c3ccccc3)oc2c1C	40.9
Cc1c(OCCCCCCN2CCCC2)ccc2c(=O)cc(-c3ccccc3)oc12	38.1
Cc1c(OCCCCCN2CCCCC2C)ccc2c(=O)cc(-c3ccccc3)oc12 (stereo unspecified)	36.7
Cc1c(OCCN2CCCC2)ccc2c(=O)cc(-c3ccccc3)oc12	42
Cc1c(OCCCCN2CCN(C)CC2)ccc2c(=O)cc(-c3ccccc3)oc12	31.1
Cc1c(OCCN2CCC(O)CC2)ccc2c(=O)cc(-c3ccccc3)oc12	26.9
Cc1c(OCCCCCN(C)C)ccc2c(=O)cc(-c3ccccc3)oc12	37.9
Cc1c(OCCCN2CCC(O)CC2)ccc2c(=O)cc(-c3ccccc3)oc12	21.4
Cc1c(OCCCN2CCCCC2C)ccc2c(=O)cc(-c3ccccc3)oc12 (stereo unspecified)	41.7
Cc1c(OCCCCCN2CCN(C)CC2)ccc2c(=O)cc(-c3ccccc3)oc12	39.9
Cc1c(OCCCCN(C)C)ccc2c(=O)cc(-c3ccccc3)oc12	34.3
Cc1c(OCCCCN2CCOCC2)ccc2c(=O)cc(-c3ccccc3)oc12	20.4
Cc1c(OCCCCCN2CCOCC2)ccc2c(=O)cc(-c3ccccc3)oc12	24.6
Cc1c(OCCCCN2CCCCC2C)ccc2c(=O)cc(-c3ccccc3)oc12 (stereo unspecified)	37.3
Cc1c(OCCCCCN2CCC(O)CC2)ccc2c(=O)cc(-c3ccccc3)oc12	37.4
Cc1c(OCCCCN2CCC(O)CC2)ccc2c(=O)cc(-c3ccccc3)oc12	22.1
Cc1c(OCCCCCN2CCCCC2)ccc2c(=O)cc(-c3ccccc3)oc12	41.7
Cc1c(OCCCCCCN2CCC(O)CC2)ccc2c(=O)cc(-c3ccccc3)oc12	39
Cc1c(OCCCCCCN2CCCCC2C)ccc2c(=O)cc(-c3ccccc3)oc12 (stereo unspecified)	43.2
Cc1c(OCCCCCN2CCCC2)ccc2c(=O)cc(-c3ccccc3)oc12	39.3
CCN(CC)CCCCOc1ccc2c(=O)cc(-c3ccccc3)oc2c1C	39
Cc1c(OCCCN2CCCC2)ccc2c(=O)cc(-c3ccccc3)oc12	27.1
Cc1c(OCCCCN2CCCCC2)ccc2c(=O)cc(-c3ccccc3)oc12	37.5
Cc1c(OCCCCN2CCCC2)ccc2c(=O)cc(-c3ccccc3)oc12	21.8

Molecular target: Acetylcholinesterase (Electrophorus electricus) (UniProt O42275)
Sequence (O42275 24-633 limits assumed): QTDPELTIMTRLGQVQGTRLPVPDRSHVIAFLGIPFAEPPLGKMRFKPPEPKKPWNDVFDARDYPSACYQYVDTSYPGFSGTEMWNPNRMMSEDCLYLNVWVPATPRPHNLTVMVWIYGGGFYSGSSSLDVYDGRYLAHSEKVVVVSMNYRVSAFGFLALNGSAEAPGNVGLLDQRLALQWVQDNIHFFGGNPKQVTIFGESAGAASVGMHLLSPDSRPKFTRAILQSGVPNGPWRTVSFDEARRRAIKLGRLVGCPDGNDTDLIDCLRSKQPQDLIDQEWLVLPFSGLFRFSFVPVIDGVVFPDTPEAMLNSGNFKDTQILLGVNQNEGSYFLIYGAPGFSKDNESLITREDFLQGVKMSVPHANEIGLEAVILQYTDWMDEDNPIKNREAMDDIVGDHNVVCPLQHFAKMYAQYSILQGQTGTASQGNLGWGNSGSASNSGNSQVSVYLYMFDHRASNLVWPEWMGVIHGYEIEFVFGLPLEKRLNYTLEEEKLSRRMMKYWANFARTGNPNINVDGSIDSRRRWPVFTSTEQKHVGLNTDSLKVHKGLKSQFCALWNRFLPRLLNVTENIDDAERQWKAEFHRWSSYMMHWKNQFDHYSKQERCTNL
Assay: Ratio of galanthamine IC50 to compound IC50 for electric eel AChE

SMILES	Ratio IC50
CCN(CC)CCCCOc1ccc2c(=O)cc(-c3ccccc3)oc2c1C	20

Molecular target: Acetylcholinesterase (Electrophorus electricus) (UniProt O42275)
Assay: Ratio of tacrine IC50 to compound IC50 for electric eel AChE

SMILES	Ratio IC50
CCN(CC)CCCCOc1ccc2c(=O)cc(-c3ccccc3)oc2c1C	2
